Experimental data taken from ChEMBL document CHEMBL1177675, “Synthesis and antiproliferative evaluation of certain iminonaphtho[2,3-b]furan derivatives” (Bioorg Med Chem, 2010).
The source made the active and inactive calls. The rule behind the calls is not given here.

Tests used:
NCI-H460 [1] = test: Cytotoxicity against human NCI-H460 cells at 4 ug/ml after 48 hrs by sulforhodamine B assay relative to control; format: functional
MCF7 [2] = test: Cytotoxicity against human MCF7 cells at 4 ug/ml after 48 hrs by sulforhodamine B assay relative to control; format: functional
SF-268 [3] = test: Cytotoxicity against human SF268 cells at 4 ug/ml after 48 hrs by sulforhodamine B assay relative to control; format: functional
K562 [4] = test: Selectivity index, ratio of GI50 for human Detroit 551 cells to GI50 for human K562 cells; format: functional
SF-268 [5] = test: Selectivity index, ratio of GI50 for human Detroit 551 cells to GI50 for human SF268 cells; format: functional
K562 [6] = test: Cell cycle arrest in human K562 cells assessed as accumulation at G2/M phase at 1 uM after 24 hrs using propidium iodide staining by flow cytometry; format: functional
K562 [7] = test: Cell cycle arrest in human K562 cells assessed as accumulation at G0/G1 phase at 1 uM after 24 hrs using propidium iodide staining by flow cytometry; format: functional
K562 [8] = test: Cell cycle arrest in human K562 cells assessed as accumulation at Sub-G1 phase at 1 uM after 24 hrs using propidium iodide staining by flow cytometry; format: functional
SF-268 [9] = test: Cytotoxicity against human SF268 cells after 72 hrs by XTT assay; format: functional; conditions: SF-268, 72 h
MCF7 [10] = test: Selectivity index, ratio of GI50 for human Detroit 551 cells to GI50 for human MCF7 cells; format: functional
NCI-H460 [11] = test: Selectivity index, ratio of GI50 for human Detroit 551 cells to GI50 for human NCI-H460 cells; format: functional
K562 [12] = test: Cytotoxicity against human K562 cells after 72 hrs by XTT assay; format: functional; conditions: K562, 72 h
MCF7 [13] = test: Cytotoxicity against human MCF7 cells after 72 hrs by XTT assay; format: functional; conditions: MCF7, 72 h
K562 [14] = test: Cell cycle arrest in human K562 cells assessed as accumulation at S phase at 1 uM after 24 hrs using propidium iodide staining by flow cytometry; format: functional
[15] = Cytotoxicity against human Detroit 551 cells after 72 hrs by XTT assay; format: cell-based
NCI-H460 [16] = test: Cytotoxicity against human NCI-H460 cells after 72 hrs by XTT assay; format: functional; conditions: NCI-H460, 72 h
K562 [17] = test: Induction of apoptosis in human K562 cells assessed as PARP cleavage after 48 hrs by immunoblot analysis; format: functional, cell-based
K562 [18] = test: Induction of apoptosis in human K562 cells assessed as morphological changes at 1 to 10 uM after 48 hrs using DAPI staining by fluorescent microscopic analysis; format: functional, cell-based
K562 [19] = test: Induction of apoptosis in human K562 cells assessed as activation of caspase-3 activity after 48 hrs by immunoblot analysis; format: functional, cell-based
K562 [20] = test: Induction of apoptosis in human K562 cells assessed as formation of fragmented DNA at 1 to 10 uM after 48 hrs using ethidium bromide staining by agarose gel electrophoresis; format: functional, cell-based

Row | SMILES | Activity (NCI-H460 [1]) [%] | Activity (MCF7 [2]) [%] | Activity (SF-268 [3]) [%] | RatioGI50 (K562 [4]) | RatioGI50 (SF-268 [5]) | Activity (K562 [6]) [%] | Activity (K562 [7]) [%] | Activity (K562 [8]) [%] | GI50 (SF-268 [9]) [µM] | RatioGI50 (MCF7 [10]) | RatioGI50 (NCI-H460 [11]) | GI50 (K562 [12]) [µM] | GI50 (MCF7 [13]) [µM] | Activity (K562 [14]) [%] | GI50 at 72 h [15] [µM] | GI50 (NCI-H460 [16]) [µM] | Activity (K562 [17]) | Activity (K562 [18]) | Activity (K562 [19]) | Activity (K562 [20])
1 | CN(C)CCCO/N=C1/c2ccccc2C(=O)c2occc21 | 51 | 74 | 54 |  |  |  |  |  |  |  |  |  |  |  |  |  |  |  |  | 
2 | O=C1c2ccccc2/C(=N/OCc2ccccc2)c2ccoc21 | 85 | 93 | 103 |  |  |  |  |  |  |  |  |  |  |  |  |  |  |  |  | 
3 | CC(=O)O/N=C1/c2ccccc2C(=O)c2occc21 | 5 | 10 | 18 | >11.64 | >12.66 | 41.9 | 29 | 5.82 | 7.9 | >7.51 | >13.4 | 8.59 | 13.3 | 30.2 | > 100 | 7.46 |  |  |  | 
4 | O=C1C(=O)c2ccoc2-c2ccccc21 | -1 | 0 | 0 | 9.02 | 0.9 | 12.7 | 36.1 | 3.75 | 6.38 | 0.9 | 0.9 | 0.64 | 6.42 | 51.2 | 5.77 | 6.38 |  |  |  | 
5 | CO/N=C1/c2ccccc2C(=O)c2occc21 | 4 | 36 | 22 | >166.67 | >6.05 | 38.2 | 26.1 | 4.8 | 16.5 | >9.85 | >14.79 | 0.6 | 10.2 | 35.7 | > 100 | 6.76 | Dose-dependent effect | Active | Dose-dependent effect | Active
6 | CC[C@@]1(O)C(=O)OCc2c1cc1n(c2=O)Cc2cc3ccccc3nc2-1 [CAMPTOTHECIN] | 1 | 33 | 25 | 16.5 | 5.21 |  |  |  | 0.19 | 1.74 | 33 | 0.06 | 0.57 |  | 0.99 | 0.03 |  |  |  | 
7 | CN(C)CCO/N=C1/c2ccccc2C(=O)c2occc21 | 51 | 78 | 53 |  |  |  |  |  |  |  |  |  |  |  |  |  |  |  |  | 
8 | Fc1ccc(/N=C2/c3ccccc3/C(=N/c3ccc(F)cc3)c3occc32)cc1 | 103 | 102 | 118 |  |  |  |  |  |  |  |  |  |  |  |  |  |  |  |  | 
9 | COc1cccc2c1C(=O)c1c(O)c3c(c(O)c1C2=O)C[C@@](O)(C(C)=O)C[C@@H]3O[C@H]1C[C@H](N)[C@H](O)[C@H](C)O1 [DAUNORUBICIN] | 15 | 30 | 16 | 239 | 2.95 |  |  |  | 0.6 | 2.06 | 4.66 | 0.0074 | 0.86 |  | 1.77 | 0.38 |  |  |  | 
10 | Br.NCCCO/N=C1/c2ccccc2C(=O)c2occc21 | 44 | 10 | 15 | 6.18 | 4.53 | 63.3 | 33.5 | 4.19 | 9.02 | 3.24 | 5.69 | 6.62 | 12.6 | 3.2 | 40.9 | 7.19 |  |  |  | 
11 | CCN(CC)CCOC(=O)c1ccc(/N=C2/c3ccccc3/C(=N/c3ccc(C(=O)OCCN(CC)CC)cc3)c3occc32)cc1 | -1 | -1 | 18 | 3.13 | 0.49 | 52.5 | 40.4 | 5.56 | 4.1 | 0.76 | 0.88 | 0.63 | 2.6 | 7.1 | 1.97 | 2.23 |  |  |  | 
12 | O=C1c2ccccc2/C(=N/c2ccc(F)cc2)c2ccoc21 | 67 | 75 | 77 |  |  |  |  |  |  |  |  |  |  |  |  |  |  |  |  | 
13 | c1ccc(/N=C2/c3ccccc3/C(=N/c3ccccc3)c3occc32)cc1 | 111 | 111 | 102 |  |  |  |  |  |  |  |  |  |  |  |  |  |  |  |  | 
14 | O=C1c2ccccc2/C(=N/OCCN2CCCC2)c2ccoc21 | 51 | 72 | 58 |  |  |  |  |  |  |  |  |  |  |  |  |  |  |  |  | 
15 | O=C1c2ccccc2C(=O)c2occc21 | 2 | 1 | 16 | 22.82 | 2.62 | 43.2 | 27.4 | 8.24 | 5.65 | 2.5 | 2.92 | 0.65 | 5.92 | 29.4 | 14.8 | 5.07 |  |  |  | 
16 | O=C1c2ccccc2/C(=N/c2ccccc2)c2ccoc21 | 65 | 74 | 74 |  |  |  |  |  |  |  |  |  |  |  |  |  |  |  |  | 
17 | O=C1c2ccccc2/C(=N/OCCN2CCOCC2)c2ccoc21 | 68 | 97 | 90 |  |  |  |  |  |  |  |  |  |  |  |  |  |  |  |  | 
18 | O=C1c2ccccc2/C(=N/O)c2ccoc21 | 5 | 10 | 16 | >121.95 | >11.3 | 58 | 37.7 | 4.41 | 8.85 | >8.13 | >12.97 | 0.82 | 12.3 | 4.4 | > 100 | 7.71 |  |  |  | 
19 | Cc1ccc(/N=C2/c3ccccc3/C(=N/c3ccc(C)cc3)c3occc32)cc1 | 104 | 104 | 118 |  |  |  |  |  |  |  |  |  |  |  |  |  |  |  |  | 
20 | O=C1c2ccccc2/C(=N/OCCN2CCCCC2)c2ccoc21 | 79 | 87 | 64 |  |  |  |  |  |  |  |  |  |  |  |  |  |  |  |  | 
21 | COc1ccc(/N=C2/c3ccccc3/C(=N/c3ccc(OC)cc3)c3occc32)cc1 | 90 | 86 | 85 |  |  |  |  |  |  |  |  |  |  |  |  |  |  |  |  | 
22 | Clc1ccc(/N=C2/c3ccccc3/C(=N/c3ccc(Cl)cc3)c3occc32)cc1 | 112 | 109 | 116 |  |  |  |  |  |  |  |  |  |  |  |  |  |  |  |  | 
23 | FC(F)(F)c1ccc(/N=C2/c3ccccc3/C(=N/c3ccc(C(F)(F)F)cc3)c3occc32)cc1 | 115 | 111 | 105 |  |  |  |  |  |  |  |  |  |  |  |  |  |  |  |  | 
24 | O=[N+]([O-])c1ccc(/N=C2/c3ccccc3/C(=N/c3ccc([N+](=O)[O-])cc3)c3occc32)cc1 | 117 | 111 | 118 |  |  |  |  |  |  |  |  |  |  |  |  |  |  |  |  | 
